Here are results for two compounds from patent publication US5411733A (priority 1992, dated 1995).

Data set [1] concerns Herpes simplex virus type I (Seibert strain). As to the kind of experiment: microbe, parasite or virus in culture. Format: cell-based. Particulars: read-out: Plaque Formation Efficiency, Acv.
Data set [2] in a line: Acv level in mouse blood (p.o.). Format: in vivo, DDY male mouse. The procedure:
(§1) To a 100 μl aliquot of the serum were added 100 μl of acetonitrile and 20 μl of a 100 mM sodium acetate solution, and the mixture was centrifuged (10000 rpm×10 mins.).
(§2) The sample solution was separated into Acv and adenine by reverse phase liquid chromatography in a usual manner. Each peak area was measured with an automatic integrator, and the Acv content was obtained from the previously prepared calibration curve.
Further, 0.5 ml of an Acv preparation or 0.5 ml of a mixture of Acv and a varied concentration of Cryt. f.# extract solution was orally administered to a 6-week-old DDY male mouse, and the Acv concentration in blood was measured in the same manner as described above. […] Accordingly, the Cryt. f.# extract solution is believed to have antiherpesviral activity by itself.

Data set [3] in a line: Acv concentration in guinea pig blood. Format: in vivo. Particulars: for concentration at 1 h: serum, 200 mg, one hour. The procedure: An Acv suspension or a mixture of Acv and an extract solution of Cryt. f.# was orally or intragastrointestinally administered to a guinea pig. One hour from the administration, blood was taken from the heart, and an inactivated serum was prepared therefrom in the same manner as in Test Example 9.
as §1, §2

For data set [4] the following is noted: lung; cited from earlier work.

Where “and” joins values, the source holds several entries; their conditions need not be identical. Equal entries are not always repeated. Where two headings read alike, the source gives them in different places.

As for `Nc1nc2c(ncn2COCCO)c(=O)[nH]1` [Acyclovir, acyclovir], the activity at 0.35 µg/mL in data set [1] is 53.6%. Besides, the concentration in data set [2] (Acv (10 mg/kg) p.o., read-out: Acv Blood Level, Mean ± σ) is 2280 ± 1490 nM; in data set [2] (Acv (100 mg/kg) + 2 mg/ml of Cryt. f.#, p.o., individual samples, listed as Acv, 100 mg/kg, read-out: Acv Blood Level) it was 1700 nM and 1400 nM and 1600 nM and 2500 nM and 4700 nM and 2900 nM and 2000 nM and 2400 nM and 9500 nM and 2300 nM; in data set [2] (Acv (100 mg/kg) + 2 mg/ml of Cryt. f.#, p.o., read-out: Acv Blood Level, Mean ± σ) it was 3100 ± 2430 nM; in data set [2] (Acv (100 mg/kg) + 10 mg/ml of Cryt. f.#, p.o., individual samples, listed as Acv, 100 mg/kg, read-out: Acv Blood Level), 2300 nM and 1100 nM and 3500 nM and 1600 nM and 1900 nM and 2600 nM and 1500 nM and 5200 nM; in data set [2] (Acv (100 mg/kg) + 10 mg/ml of Cryt. f.#, p.o., read-out: Acv Blood Level, Mean ± σ), 2460 ± 1330 nM; in data set [2] (Acv (100 mg/kg) + 20 mg/ml of Cryt. f.#, p.o., read-out: Acv Blood Level, Mean ± σ) it was 2590 ± 1530 nM. For the same compound, the “effect of Cryt. f.# on Acv concentration in blood” value in data set [2] (mouse, Table 13) is on record as “no increase in Acv concentration in blood was observed”. In data set [3] (Table 12), the “effect of Cryt. f.# on Acv absorption” value was “it is not recognized that the Acv absorption was accelerated”. Also, the concentration at 1 h in data set [3] (Acv (200 mg) + 1 mg/ml of Cryt. f.#, individual samples, read-out: Acv Concentration in Blood) came out at 76400 nM; in data set [3] (Acv (200 mg) + 1 mg/ml of Cryt. f.#, read-out: Acv Concentration in Blood, Mean ± σ), 92900 ± 31900 nM; in data set [3] (Acv (200 mg) + 5 mg/ml of Cryt. f.#, individual samples, read-out: Acv Concentration in Blood) it was 92900 nM; in data set [3] (Acv (200 mg) + 5 mg/ml of Cryt. f.#, read-out: Acv Concentration in Blood, Mean ± σ) it was 88300 ± 17400 nM; in data set [3] (Acv (200 mg) + 20 mg/ml of Cryt. f.#, read-out: Acv Concentration in Blood, Mean ± σ) it was 72200 ± 70400 nM; in data set [3] (Acv (200 mg), read-out: Acv Concentration in Blood, Mean ± σ), 88600 ± 85600 nM.
`C=CC[C@@H]1/C=C(\C)C[C@H](C)C[C@H](OC)[C@H]2O[C@@](O)(C(=O)C(=O)N3CCCC[C@H]3C(=O)O[C@H](/C(C)=C/[C@@H]3CC[C@@H](O)[C@H](OC)C3)[C@H](C)[C@@H](O)CC1=O)[C@H](C)C[C@@H]2OC` [FK 506]: the distribution result in data set [4] is given as “concentrated in the lung”.
